Literature values, collected in PMC9120017, “Inhibition mechanism of the chloride channel TMEM16A by the pore blocker 1PBC” (Nature Communications, 2022).

Test system: TMEM16A
Details: cited from earlier work

SMILES	Inhibition of TMEM16A	Selectivity for anion channels of the TMEM16 family over the scramblase TMEM16F
O=C(O)c1c2ccccc2cc2ccccc12 [9-AC, 9-anthracene carboxylate]	inhibit TMEM16A	–
O=C(O)c1cccnc1Nc1cccc(C(F)(F)F)c1 [NFA]	–	selective for anion channels of the TMEM16 family over the scramblase TMEM16F
O=S(=O)(O)c1cc(N=C=S)ccc1C=Cc1ccc(N=C=S)cc1S(=O)(=O)O [DIDS, 4,4′-Diisothiocyanato-2,2′-stilbenedisulfonic acid]	inhibit TMEM16A	–
O=C(Nc1ccc([N+](=O)[O-])cc1Cl)c1cc(Cl)ccc1O [niclosamide]	inhibit TMEM16A	–
O=C(O)c1cc([N+](=O)[O-])ccc1NCCCc1ccccc1 [NPPB]	–	selective for anion channels of the TMEM16 family over the scramblase TMEM16F
